Molecules are shown by their SMILES. pIC50: −log10 of the molar value. Bounds are passed on as bounds.

T1 sequence (Q04759 whole entry): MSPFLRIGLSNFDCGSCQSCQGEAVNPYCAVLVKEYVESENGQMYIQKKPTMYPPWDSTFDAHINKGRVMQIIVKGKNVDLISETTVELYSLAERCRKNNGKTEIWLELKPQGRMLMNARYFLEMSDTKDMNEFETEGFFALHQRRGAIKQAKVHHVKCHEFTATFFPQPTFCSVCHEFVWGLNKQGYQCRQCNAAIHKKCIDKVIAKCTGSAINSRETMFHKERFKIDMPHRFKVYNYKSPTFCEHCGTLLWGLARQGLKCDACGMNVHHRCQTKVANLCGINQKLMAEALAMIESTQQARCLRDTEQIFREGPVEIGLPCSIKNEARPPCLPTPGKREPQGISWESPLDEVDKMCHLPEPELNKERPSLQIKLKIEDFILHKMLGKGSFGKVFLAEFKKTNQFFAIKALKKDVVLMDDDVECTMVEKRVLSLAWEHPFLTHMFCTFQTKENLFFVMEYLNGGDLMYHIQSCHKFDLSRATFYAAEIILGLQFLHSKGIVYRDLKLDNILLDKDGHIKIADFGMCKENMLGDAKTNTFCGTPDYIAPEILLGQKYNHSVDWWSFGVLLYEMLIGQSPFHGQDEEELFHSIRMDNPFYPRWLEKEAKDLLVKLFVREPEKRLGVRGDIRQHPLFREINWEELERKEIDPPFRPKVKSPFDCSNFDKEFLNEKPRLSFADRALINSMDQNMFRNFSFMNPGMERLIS

The assay has as its target T1, full length PKC θ (Homo sapiens, UniProt Q04759).
T1 construct: 15 μL of full length PKC θ (Panvera Corporation); purchased Panvera Corporation
The assay is described as follows: PKC-theta isoform inhibition assay (HTRF, 384 well plate). The format is biochemical. To be noted: full length PKC θ at 27 pM, peptide substrate 300 nM + 3 μM ATP, HTRF readout. As for the experimental part: An in vitro assay for detecting and measuring inhibition activity against PKC-theta isoform by candidate pharmacological agents is useful for evaluating and selecting a compound that modulates PKC-theta isoform. An IC50 value can be calculated after running the assay. Following is an assay protocol for measuring PKC-theta isoform.
Per well of a 384 well plate, compounds at various concentrations in 5 μL of 20% DMSO were pre-incubated for about 30 minutes at about 25° C. with 15 μL of full length PKC θ (Panvera Corporation) at 27 pM in an assay buffer (25 mM Hepes, pH 7.5, 5 mM DTT, 10 mM MgCl2, 10 mM 2-glycerophosphate, 12.5 μg/mL 1,2-dioleoyl-rac-glycerol, 10 μg/mL L-α-phosphatidyl-L-serine, 0.1% Bovine Serum Albumin). 10 μL of peptide substrate (biotin-(CH2)6— RFARKGSLRQKNV —CONH2) at 300 nM+3 μM ATP were added to each well and incubated for about 1 hour before quenching with 10 μL of 250 mM EDTA. 40 μL of detection buffer (25 mM Hepes, pH 7.5, 100 mM KF, 0.1% Bovine Serum Albumin, 0.01% Tween20) containing 2 nM anti-phospho antibody 2B9 (MBL International) labeled with europium cryptate (Cis-Bio International) and 0.0064 μg/mL streptavidin-allophycocyanin (Prozyme) was added to each well and incubated for two hours. Signal was then read on a Discovery HTRF (Packard).
What is called pIC50 is −log10 of the IC50, conventionally taken in molar units. As for `CCN(CCCN)Cc1cccc(-c2ccnc(NCCc3ccc(O)cc3)n2)c1` [Compound 1, (4-{2-[4-(3-{[(3-Amino-propyl)-ethyl-amino]-methyl}-phenyl)-pyrimidin-2-ylamino]-ethyl}-phenol)], the pIC50 is > 7.00. As for `CS(=O)(=O)N(CCCN)Cc1cccc(-c2ccnc(NCCc3ccc(O)cc3)n2)c1` [Compound 2, N-(3-Amino-propyl)-N-(3-{2-[2-(4-hydroxy-phenyl)-ethylamino]-pyrimidin-4-yl}-benzyl)-methanesulfonamide], the pIC50 is > 7.00.

On to `CS(=O)(=O)N(CCCN)Cc1cccc(-c2ccnc(NCCc3ccc(N)cc3)n2)c1` [Compound 5, N-(3-{2-[2-(4-Amino-phenyl)-ethylamino]-pyrimidin-4-yl}-benzyl)-N-(3-amino-propyl)-methanesulfonamide], for which the negative logarithm of the IC50 (pIC50) was > 7.00. To `CS(=O)(=O)N(CCCN)Cc1cccc(-c2ccnc(NCCc3ccc(O)c(O)c3)n2)c1` [Compound 6, N-(3-Amino-propyl)-N-(3-{2-[2-(3,4-dihydroxy-phenyl)-ethylamino]-pyrimidin-4-yl}-benzyl)-methanesulfonamide] belongs > 7.00.

With `COc1ccc(CCNc2nccc(-c3cccc(CN(CCCN)S(C)(=O)=O)c3)n2)cc1O` [Compound 8, N-(3-Amino-propyl)-N-(3-{2-[2-(3-hydroxy-4-methoxy-phenyl)-ethylamino]-pyrimidin-4-yl}-benzyl)-methanesulfonamide], the negative logarithm of the IC50 (pIC50) is > 7.00.

Turning to `CS(=O)(=O)N(CCCN)Cc1cccc(-c2ccnc(NCCc3ccc(O)c([N+](=O)[O-])c3)n2)c1` [Compound 22, N-(3-Amino-propyl)-N-(3-{2-[2-(4-hydroxy-3-nitro-phenyl)-ethylamino]-pyrimidin-4-yl}-benzyl)-methanesulfonamide], the negative-log IC50 (pIC50) is > 7.00. Next, `CS(=O)(=O)N(CCCN)Cc1cccc(-c2ccnc(NCCc3ccc(O)c(Cl)c3)n2)c1` [Compound 24, N-(3-Amino-propyl)-N-(3-{2-[2-(3-chloro-4-hydroxy-phenyl)-ethylamino]-pyrimidin-4-yl}-benzyl)-methanesulfonamide]: > 7.00; `CS(=O)(=O)N(CCCN)Cc1cccc(-c2ccnc(NCCc3cccc(O)c3)n2)c1` [Compound 26, N-(3-Amino-propyl)-N-(3-{2-[2-(3-hydroxy-phenyl)-ethylamino]-pyrimidin-4-yl}-benzyl)-methanesulfonamide]: > 7.00. Next, `CS(=O)(=O)N(CCCN)Cc1cccc(-c2ccnc(NCCc3cc(Cl)c(O)c(Cl)c3)n2)c1` [Compound 29, N-(3-Amino-propyl)-N-(3-{2-[2-(3,5-dichloro-4-hydroxy-phenyl)-ethylamino]-pyrimidin-4-yl}-benzyl)-methanesulfonamide]: > 7.00; `CS(=O)(=O)N(CCCN)Cc1cccc(-c2ccnc(NCCc3ccc(O)c(Br)c3)n2)c1` [Compound 36, N-(3-Amino-propyl)-N-(3-{2-[2-(3-bromo-4-hydroxy-phenyl)-ethylamino]-pyrimidin-4-yl}-benzyl)-methanesulfonamide]: > 7.00. Next, `Oc1ccc(CCNc2nccc(-c3cccc(NC4CCNCC4)c3)n2)cc1` [Compound 38, 4-(2-{4-[3-(Piperidin-4-ylamino)-phenyl]-pyrimidin-2-ylamino}-ethyl)-phenol]: > 7.00. Regarding `COc1cc(CCNc2nccc(-c3cccc(NC4CCNCC4)c3)n2)ccc1O` [Compound 40, 2-Methoxy-4-(2-{4-[3-(piperidin-4-ylamino)-phenyl]-pyrimidin-2-ylamino}-ethyl)-phenol], the pIC50 was > 7.00. Next, `Oc1ccc(CCNc2nccc(-c3cccc(NC4CCNCC4)c3)n2)cc1Cl` [Compound 45, 2-Chloro-4-(2-{4-[3-(piperidin-4-ylamino)-phenyl]-pyrimidin-2-ylamino}-ethyl)-phenol]: > 7.00. For the molecule `Oc1c(Cl)cc(CCNc2nccc(-c3cccc(NC4CCNCC4)c3)n2)cc1Cl` [Compound 48, 2,6-Dichloro-4-(2-{4-[3-(piperidin-4-ylamino)-phenyl]-pyrimidin-2-ylamino}-ethyl)-phenol], the pIC50 is > 7.00.

On to `Oc1cccc(CCNc2nccc(-c3cccc(NC4CCNCC4)c3)n2)c1` [Compound 49, 3-(2-{4-[3-(Piperidin-4-ylamino)-phenyl]-pyrimidin-2-ylamino}-ethyl)-phenol], for which the pIC50 is > 7.00. Next, `Oc1ccc(CCNc2nccc(-c3cccc(NC4CCNCC4)c3)n2)cc1Br` [Compound 50, 2-Bromo-4-(2-{4-[3-(piperidin-4-ylamino)-phenyl]-pyrimidin-2-ylamino}-ethyl)-phenol]: > 7.00. To `Oc1ccc(CCNc2nccc(-c3cccc(NC4CCCNC4)c3)n2)cc1` (centres unmarked) [Compound 53, 4-(2-{4-[3-(Piperidin-3-ylamino)-phenyl]-pyrimidin-2-ylamino}-ethyl)-phenol] belongs > 7.00; to `Oc1ccc(CCNc2nccc(-c3cccc(NC4CCCNC4)c3)n2)cc1Cl` (centres unmarked) [Compound 54, 2-Chloro-4-(2-{4-[3-(piperidin-3-ylamino)-phenyl]-pyrimidin-2-ylamino}-ethyl)-phenol], > 7.00. To `Oc1ccc(CCNc2nccc(-c3cccc(NC4CCNC4)c3)n2)cc1` (centres unmarked) [Compound 55, 4-(2-{4-[3-(Pyrrolidin-3-ylamino)-phenyl]-pyrimidin-2-ylamino}-ethyl)-phenol] belongs > 7.00. Turning to `CS(=O)(=O)N(CCCNC(=O)c1ccccn1)Cc1cccc(-c2ccnc(NCCc3ccc(O)cc3)n2)c1` [Compound 60, Pyridine-2-carboxylic acid {3-[(3-{2-[2-(4-hydroxy-phenyl)-ethylamino]-pyrimidin-4-yl}-benzyl)-methanesulfonyl-amino]-propyl}-amide], the pIC50 is > 7.00. For `Cc1ncccc1C(=O)NCCCN(Cc1cccc(-c2ccnc(NCCc3ccc(O)cc3)n2)c1)S(C)(=O)=O` [Compound 62], the pIC50 is > 7.00. As to `CS(=O)(=O)N(CCCNS(=O)(=O)Cc1ccccc1)Cc1cccc(-c2ccnc(NCCc3ccc(O)cc3)n2)c1` [Compound 64, N-{3-[(3-{2-[2-(4-Hydroxy-phenyl)-ethylamino]-pyrimidin-4-yl}-benzyl)-methanesulfonyl-amino]-propyl}-C-phenyl-methanesulfonamide], the pIC50 is > 7.00. With `CS(=O)(=O)N(CCCNS(=O)(=O)c1ccccc1)Cc1cccc(-c2ccnc(NCCc3ccc(O)cc3)n2)c1` [Compound 65, N-{3-[(3-{2-[2-(4-Hydroxy-phenyl)-ethylamino]-pyrimidin-4-yl}-benzyl)-methanesulfonyl-amino]-propyl}-benzenesulfonamide], the negative logarithm of the IC50 (pIC50) was > 7.00. To `O=C(NCC1CCNC1)c1cccc(-c2ccnc(NCCc3ccc(O)cc3)n2)c1` (centres unmarked) [Compound 67, 3-{2-[2-(4-Hydroxy-phenyl)-ethylamino]-pyrimidin-4-yl}-N-pyrrolidin-3-ylmethyl-benzamide] belongs > 7.00; to `NCCCNC(=O)c1cccc(-c2ccnc(NCCc3ccc(O)cc3)n2)c1` [Compound 68, N-(3-Amino-propyl)-3-{2-[2-(4-hydroxy-phenyl)-ethylamino]-pyrimidin-4-yl}-benzamide], > 7.00; to `CCN(Cc1cccnc1)c1cccc(-c2ccnc(NCCc3ccc(O)cc3)n2)c1` [Compound 80, 4-(2-{4-[3-(Ethyl-pyridin-3-ylmethyl-amino)-phenyl]-pyrimidin-2-ylamino}-ethyl)-phenol], > 7.00.

The record behind these values is patent US7732444B2, “2-(amino-substituted)-4-aryl pyrimidines and related compounds useful for treating inflammatory diseases” (Millennium Pharmaceuticals, Inc., priority 2004, dated 2010).
